From ChEMBL document CHEMBL5252549, “Recent developments on synthesis and biological activities of γ-carboline” (Eur J Med Chem, 2018)
In brackets after ≈: the same amount, converted by molar mass. Counter-ions that a name gives are not always drawn.

Key:
[1] = Selectivity index, ratio of CC50 for cytotoxicity against MDBK cells to EC50 for antiviral activity against bovine viral diarrhea virus 1 infected in MDBK cells; assay type: toxicity, cell-based; settings: cattle, read-out: Ratio CC50/EC50
[2] = test system: Bovine viral diarrhea virus 1; test: Antiviral activity against bovine viral diarrhea virus 1 infected in MDBK cells assessed as reduction in viral replication-induced cell destruction incubated for 3 days; assay type: functional, organism-based; settings: Bovine viral diarrhea virus isolates and strains, 72 h
[3] = biological target: T1, Glutamate receptor ionotropic, NMDA 2B (Homo sapiens, UniProt Q05586+Q13224); test: Displacement of [3H]ifenprodyl from NMDA receptor NR2B subunit (unknown origin)
T1 sequence (Q13224 whole entry, one chain of several): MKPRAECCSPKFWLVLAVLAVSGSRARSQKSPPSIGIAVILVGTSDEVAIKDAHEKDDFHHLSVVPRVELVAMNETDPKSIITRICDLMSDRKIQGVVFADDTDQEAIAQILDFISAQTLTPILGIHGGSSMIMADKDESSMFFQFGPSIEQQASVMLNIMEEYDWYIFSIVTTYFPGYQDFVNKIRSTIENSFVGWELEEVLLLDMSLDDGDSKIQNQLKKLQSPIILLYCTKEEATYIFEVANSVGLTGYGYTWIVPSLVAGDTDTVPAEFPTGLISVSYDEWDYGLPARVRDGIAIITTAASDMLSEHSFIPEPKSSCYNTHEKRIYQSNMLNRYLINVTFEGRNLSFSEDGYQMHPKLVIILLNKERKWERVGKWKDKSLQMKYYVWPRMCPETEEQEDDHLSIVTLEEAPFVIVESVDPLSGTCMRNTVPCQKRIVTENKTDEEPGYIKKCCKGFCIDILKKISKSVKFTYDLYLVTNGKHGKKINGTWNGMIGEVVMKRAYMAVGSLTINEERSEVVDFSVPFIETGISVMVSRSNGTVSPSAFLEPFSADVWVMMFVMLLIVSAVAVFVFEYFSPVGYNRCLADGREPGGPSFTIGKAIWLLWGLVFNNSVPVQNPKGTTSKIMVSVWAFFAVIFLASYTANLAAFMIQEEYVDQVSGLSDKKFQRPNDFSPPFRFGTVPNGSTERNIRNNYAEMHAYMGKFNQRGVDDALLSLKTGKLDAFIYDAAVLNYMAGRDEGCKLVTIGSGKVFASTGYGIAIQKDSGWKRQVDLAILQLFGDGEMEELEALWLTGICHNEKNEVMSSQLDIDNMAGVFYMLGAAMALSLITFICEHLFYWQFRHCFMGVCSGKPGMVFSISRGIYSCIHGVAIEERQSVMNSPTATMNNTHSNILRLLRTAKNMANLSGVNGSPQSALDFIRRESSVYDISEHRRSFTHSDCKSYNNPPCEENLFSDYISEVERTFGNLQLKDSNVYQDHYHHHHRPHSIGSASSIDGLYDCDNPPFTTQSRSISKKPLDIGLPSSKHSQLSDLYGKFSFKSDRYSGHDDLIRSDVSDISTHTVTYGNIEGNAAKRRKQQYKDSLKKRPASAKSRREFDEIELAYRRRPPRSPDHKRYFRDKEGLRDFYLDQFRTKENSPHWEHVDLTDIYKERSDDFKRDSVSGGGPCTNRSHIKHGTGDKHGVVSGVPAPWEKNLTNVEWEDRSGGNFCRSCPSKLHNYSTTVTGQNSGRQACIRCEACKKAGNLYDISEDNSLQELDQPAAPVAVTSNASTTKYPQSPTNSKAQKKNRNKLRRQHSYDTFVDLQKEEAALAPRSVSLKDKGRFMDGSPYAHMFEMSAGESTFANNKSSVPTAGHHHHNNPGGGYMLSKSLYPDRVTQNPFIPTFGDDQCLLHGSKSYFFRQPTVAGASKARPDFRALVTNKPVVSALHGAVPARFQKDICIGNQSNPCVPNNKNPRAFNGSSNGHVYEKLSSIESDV

[4] = biological target: T1, Glutamate receptor ionotropic, NMDA 2B; test: Displacement of [3H]MK801 from NMDA receptor NR2B subunit (unknown origin)
Cholinesterase [5] = biological target: Cholinesterase (Homo sapiens, UniProt P06276); test: Inhibition of BChE (unknown origin)
Sequence of Cholinesterase (Homo sapiens, UniProt P06276) (P06276 whole entry): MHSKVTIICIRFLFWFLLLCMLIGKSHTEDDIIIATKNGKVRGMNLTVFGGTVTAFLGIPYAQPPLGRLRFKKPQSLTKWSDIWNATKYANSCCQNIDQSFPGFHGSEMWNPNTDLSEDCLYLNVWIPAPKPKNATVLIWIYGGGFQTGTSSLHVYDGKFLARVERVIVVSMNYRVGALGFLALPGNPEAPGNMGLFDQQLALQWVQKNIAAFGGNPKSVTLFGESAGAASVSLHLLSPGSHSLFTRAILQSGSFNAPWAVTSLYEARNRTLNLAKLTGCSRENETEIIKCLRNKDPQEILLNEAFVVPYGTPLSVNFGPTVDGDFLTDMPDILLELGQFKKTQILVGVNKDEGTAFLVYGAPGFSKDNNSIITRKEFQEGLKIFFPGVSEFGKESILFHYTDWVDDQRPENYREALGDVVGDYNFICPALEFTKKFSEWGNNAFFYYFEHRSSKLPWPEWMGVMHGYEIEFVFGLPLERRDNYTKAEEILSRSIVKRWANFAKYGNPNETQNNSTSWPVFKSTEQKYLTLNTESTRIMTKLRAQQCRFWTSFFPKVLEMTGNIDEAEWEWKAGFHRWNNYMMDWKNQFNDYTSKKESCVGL

[6] = biological target: Glutamate [NMDA] receptor; test: Displacement of [3H]ifenprodyl from NMDA receptor (unknown origin); assay type: protein-complex assay, Homo sapiens
Acetylcholinesterase = Acetylcholinesterase (Homo sapiens, UniProt P22303); test: Inhibition of human erythrocyte AChE incubated for 10 mins by Ellman's method; assay type: cell-based
Sequence of Acetylcholinesterase (P22303 whole entry): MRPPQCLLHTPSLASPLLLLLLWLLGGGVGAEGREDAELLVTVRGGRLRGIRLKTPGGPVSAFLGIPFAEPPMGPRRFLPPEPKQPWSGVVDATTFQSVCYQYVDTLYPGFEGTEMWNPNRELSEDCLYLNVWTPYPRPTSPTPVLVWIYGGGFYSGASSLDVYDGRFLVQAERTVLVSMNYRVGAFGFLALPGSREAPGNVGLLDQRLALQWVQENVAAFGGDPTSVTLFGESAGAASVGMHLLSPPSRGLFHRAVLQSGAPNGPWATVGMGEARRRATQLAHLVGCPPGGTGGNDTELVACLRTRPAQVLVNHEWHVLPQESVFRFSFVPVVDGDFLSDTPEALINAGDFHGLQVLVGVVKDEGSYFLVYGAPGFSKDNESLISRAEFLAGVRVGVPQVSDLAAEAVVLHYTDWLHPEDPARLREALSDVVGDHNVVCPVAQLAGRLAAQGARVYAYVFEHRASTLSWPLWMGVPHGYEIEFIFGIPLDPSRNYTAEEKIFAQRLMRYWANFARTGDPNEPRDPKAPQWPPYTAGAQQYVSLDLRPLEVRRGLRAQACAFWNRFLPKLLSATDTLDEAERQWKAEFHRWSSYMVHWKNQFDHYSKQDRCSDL

Cholinesterase [7] = biological target: Cholinesterase (Equus caballus, UniProt P81908); test: Inhibition of horse serum BChE incubated for 10 mins by Ellman's method; assay type: cell-free
Sequence of Cholinesterase (Equus caballus, UniProt P81908) (P81908 whole entry): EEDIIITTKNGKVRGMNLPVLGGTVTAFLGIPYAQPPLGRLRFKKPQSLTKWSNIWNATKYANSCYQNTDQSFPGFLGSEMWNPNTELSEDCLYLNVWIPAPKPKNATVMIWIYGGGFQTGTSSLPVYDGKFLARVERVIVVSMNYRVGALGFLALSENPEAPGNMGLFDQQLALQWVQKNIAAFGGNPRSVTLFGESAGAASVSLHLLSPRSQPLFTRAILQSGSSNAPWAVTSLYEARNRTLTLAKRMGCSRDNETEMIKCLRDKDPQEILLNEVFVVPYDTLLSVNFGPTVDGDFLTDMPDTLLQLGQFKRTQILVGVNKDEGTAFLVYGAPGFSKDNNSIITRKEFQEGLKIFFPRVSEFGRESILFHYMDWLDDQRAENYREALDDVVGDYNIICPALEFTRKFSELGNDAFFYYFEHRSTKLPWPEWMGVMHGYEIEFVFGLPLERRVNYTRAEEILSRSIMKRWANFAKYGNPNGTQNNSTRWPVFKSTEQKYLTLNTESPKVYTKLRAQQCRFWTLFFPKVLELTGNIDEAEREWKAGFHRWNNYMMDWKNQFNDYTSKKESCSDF

L5178Y = test: Cytotoxicity against mouse L5178Y cells; assay type: functional, cell-based
Escherichia coli = test: Antibacterial activity against Escherichia coli assessed as inhibition of bacterial growth incubated for 24 hrs by agar diffusion assay; assay type: functional, organism-based

With `c1ccc2c(c1)[nH]c1ccncc12` the selectivity ratio [1] was 20.

In the case of `Cc1ncc2c3ccccc3n(C)c2c1C`, the EC50 [2] is reported as 0.0035 µM and the selectivity ratio [1] is reported as 2060.

Compound `CCN1CCc2c(c3cc(F)ccc3n2CCC(=O)N2c3ccccc3Sc3ccccc32)C1` has an IC50 [3] of 8.8 µM and an IC50 [4] of 15.8 µM.

`CCN1CCc2c(c3ccccc3n2CCC(=O)N2c3ccccc3Sc3ccccc32)C1` gave an IC50 [3] of 13.4 µM and an IC50 [4] of 14.6 µM.

In the case of `Cc1ccc2c(c1)c1c(n2CC(O)Cn2c3c(c4ccccc42)CCCC3)CCN(C)C1` (stereo unspecified), the IC50 (Cholinesterase [5]) is reported as 3.9 µM.

Work on `CN1CCc2c(c3cc(F)ccc3n2CC(O)Cn2c3c(c4ccccc42)CCCC3)C1` (stereo unspecified) yielded an IC50 (Cholinesterase [5]) of 5.03 µM.

`CCN1CCc2c(c3cc(C)ccc3n2CC(O)Cn2c3c(c4ccccc42)CCCC3)C1` (stereo unspecified) showed an IC50 (Cholinesterase [5]) of 5.23 µM.

Compound `Cc1ccc2c(c1)c1c(n2CC(O)Cn2c3ccccc3c3ccccc32)CCN(C)C1` (stereo unspecified) has an IC50 [6] of 11.7 µM.

With `CCc1ccc2c(c1)c1c(n2CCC(=O)N2c3ccccc3Sc3ccccc32)CCN(C)C1` the IC50 [3] was 15.4 µM and the IC50 [4] was 13.2 µM.

Compound `CCN1CCc2c(c3cc(C)ccc3n2-c2c(C(F)(F)F)nc3ccccn23)C1` has an IC50 [3] of 39.5 µM.

`CCN1CCc2c(c3cc(C)ccc3n2CC(O)Cn2c3ccccc3c3ccccc32)C1` (stereo unspecified) gave an IC50 [6] of 12.5 µM.

`CN1CCc2c(c3ccccc3n2CC(O)Cn2c3c(c4ccccc42)CCCC3)C1` (stereo unspecified) showed an IC50 (Cholinesterase [5]) of 1.06 µM.

Work on `Cc1ccc2c(c1)c1c(n2CCC(=O)N(C)c2c(C(F)(F)F)nc3cc(C)ccn23)CCN(C)C1` yielded an IC50 [3] of 32.6 µM.

For `CCN1CCc2c(c3cc(F)ccc3n2CC(O)Cn2c3c(c4ccccc42)CCCC3)C1` (stereo unspecified), the IC50 (Cholinesterase [5]) was 5.83 µM.

For `CN1CCc2c(c3ccccc3n2Cc2ccccc2C(=O)NCCO[N+](=O)[O-])C1`, the IC50 (Acetylcholinesterase) was 14.8 µM and the IC50 (Cholinesterase [7]) was 3.68 µM.

`COc1ccc2c(c1)c1c(n2CC(O)CN2c3ccccc3Sc3ccccc32)CCN(C)C1` (stereo unspecified) showed an IC50 (Cholinesterase [5]) of 0.39 µM.

With `Nc1nccc(-c2cncc3c2[nH]c2ccccc23)n1` the EC50 (L5178Y) was 9.1 µg/mL (≈ 34.8 µM).

Compound `CCN1CCc2c(c3ccccc3n2CC(O)Cn2c3c(c4ccccc42)CCCC3)C1` (stereo unspecified) has an IC50 (Cholinesterase [5]) of 2.77 µM.

`Cn1cc2c3ccccc3n(C)c2c(Cc2ccccc2Cl)c1=O` gave an IC50 (Escherichia coli) of 17 µM.

Compound `Cc1ccc2c(c1)c1c(n2CCc2ccc(C)nc2)CCN(C)C1` [LATREPIRDINE] has an IC50 [3] of 82.4 µM.

Work on `CN(C)[C@@H]1C(O)=C(C(N)=O)C(=O)[C@@]2(O)C(O)=C3C(=O)c4c(O)cccc4[C@@](C)(O)[C@H]3C[C@@H]12` [TETRACYCLINE HYDROCHLORIDE] yielded an IC50 (Escherichia coli) of 30 µM.
